From patent US10138238B2, “Pesticidally active polycyclic derivatives with sulfur containing substituents” (Syngenta Participations AG, priority 2015, dated 2018)

Columns and labels:
Type in all cases: in vivo
[1] = tested on: Euschistus heros (Neotropical Brown Stink Bug); assay: Example B3: Euschistus heros, soybean leaves, N2 nymphs; settings: 120 h, application rate of 200 ppm, 5 days after infestation, read-out: effect in at least one of the two categories (mortality or growth inhibition)
Procedure: Soybean leaves on agar in 24-well microtiter plates were sprayed with aqueous test solutions prepared from 10'000 ppm DMSO stock solutions. After drying the leaves were infested with N2 nymphs. The samples were assessed for mortality and growth inhibition in comparison to untreated samples 5 days after infestation. The following compounds gave an effect of at least 80% in at least one of the two categories (mortality or growth inhibition) at an application rate of 200 ppm: • P1, P3, P8, P9, P10, P13, P14, and P15

[2] = tested on: Spodoptera littoralis (Egyptian Cotton Leaf Worm); assay: Example B7: Spodoptera littoralis, cotton leaf discs, L1 larvae; settings: foliar, 72 h, application rate of 200 ppm, 3 days after infestation
Procedure: (§1) Cotton leaf discs were placed onto agar in 24-well microtiter plates and sprayed with aqueous test solutions prepared from 10'000 ppm DMSO stock solutions. After drying the leaf discs were infested with five L1 larvae. The samples were assessed for mortality, anti-feeding effect, and growth inhibition in comparison to untreated samples 3 days after infestation. Control of Spodoptera littoralis by a test sample is given when at least one of the categories mortality, anti-feedant effect, and growth inhibition is higher than the untreated sample.

[3] = tested on: Plutella xylostella (Diamond Back Moth); assay: Example B6: Plutella xylostella, artificial diet, L2 larvae; settings: 120 h, application rate of 200 ppm, 5 days after infestation, read-out: effect in at least one of the two categories (mortality or growth inhibition)
Procedure: (§2) 24-well microtiter plates with artificial diet were treated with aqueous test solutions prepared from 10'000 ppm DMSO stock solutions by pipetting. After drying, the plates were infested with L2 larvae (10 to 15 per well). The samples were assessed for mortality and growth inhibition in comparison to untreated samples 5 days after infestation. The following compounds gave an effect of at least 80% in at least one of the two categories (mortality or growth inhibition) at an application rate of 200 ppm: P1, P2, P3, P4, P6, P8, P9, P10, P11, P12, P13, P14 and P15.

[4] = tested on: Diabrotica balteata (Corn Root Worm); assay: Example B2: Diabrotica balteata, maize sprouts, L2 larvae; settings: 96 h, application rate of 200 ppm, 4 days after infestation, read-out: effect in at least one of the two categories (mortality or growth inhibition)
Procedure: (§3) Maize sprouts placed onto an agar layer in 24-well microtiter plates were treated with aqueous test solutions prepared from 10'000 ppm DMSO stock solutions by spraying. After drying, the plates were infested with L2 larvae (6 to 10 per well). The samples were assessed for mortality and growth inhibition in comparison to untreated samples 4 days after infestation. The following compounds gave an effect of at least 80% in at least one of the two categories (mortality or growth inhibition) at an application rate of 200 ppm: P1, P2, P3, P4, P5, P6, P7, P8, P9, P10, P11, P12, P13, P14, and P15.

[5] = tested on: Myzus persicae (Green Peach Aphid); assay: Example B4: Myzus persicae feeding/contact activity; settings: 144 h, application rate of 200 ppm, 6 days after infestation
Procedure: Sunflower leaf discs were placed onto agar in a 24-well microtiter plate and sprayed with aqueous test solutions prepared from 10'000 ppm DMSO stock solutions. After drying, the leaf discs were infested with an aphid population of mixed ages. The samples were assessed for mortality 6 days after infestation.

[6] = tested on: Spodoptera littoralis (Egyptian Cotton Leaf Worm); assay: Example B8: Spodoptera littoralis systemic activity; settings: 144 h, test rate of 12.5 ppm, lettuce, 6 days after infestation, read-out: effect in at least one of the three categories (mortality, anti-feeding, or growth inhibition)
Text: Test compounds were applied by pipette from 10'000 ppm DMSO stock solutions into 24-well plates and mixed with agar. Lettuce seeds were placed onto the agar and the multi well plate was closed by another plate which contained also agar. After 7 days the compound was absorbed by the roots and the lettuce grew into the lid plate. The lettuce leaves were then cut off into the lid plate. Spodoptera eggs were pipetted through a plastic stencil onto a humid gel blotting paper and the lid plate was closed with it. The samples were assessed for mortality, anti-feedant effect and growth inhibition in comparison to untreated samples 6 days after infestation. The following compounds gave an effect of at least 80% in at least one of the three categories (mortality, anti-feeding, or growth inhibition) at a test rate of 12.5 ppm: • P10, P13, P14 and P15.

[7] = tested on: Bemisia tabaci (Cotton White Fly); assay: Example B1: Bemisia tabaci feeding/contact activity; settings: 144 h, application rate of 200 ppm, adult white flies, 6 days after incubation
Procedure: Cotton leaf discs were placed on agar in 24-well microtiter plates and sprayed with aqueous test solutions prepared from 10'000 ppm DMSO stock solutions. After drying the leaf discs were infested with adult white flies. The samples were checked for mortality 6 days after incubation.

[8] = tested on: Tetranychus urticae (Two-Spotted Spider Mite); assay: Example B9: Tetranychus urticae feeding/contact activity; settings: 192 h, application rate of 200 ppm, mixed population (mobile stages), 8 days after infestation, read-out: mortality
Procedure: Bean leaf discs on agar in 24-well microtiter plates were sprayed with aqueous test solutions prepared from 10'000 ppm DMSO stock solutions. After drying the leaf discs were infested with a mite population of mixed ages. The samples were assessed for mortality on mixed population (mobile stages) 8 days after infestation.

[9] = tested on: Diabrotica balteata (Corn Root Worm); assay: Example B13: Breakpoint (BP80) against Diabrotica balteata; settings: lowest concentration which gives 80% larval mortality; larval feeding/contact
Procedure: as §3
(§4) Insecticidal action against Diabrotica balteata (Corn root worm), Plutella xylostella (Diamond black moth), and Spodoptera littoralis (Egyptian cotton leaf worm). The tests were carried out as described in biological examples B2, B6 and B7, respectively, with the larval feeding/contact activity being reported as Breakpoint (BP80) values in parts per million (i.e. the lowest concentration which gives 80% larval mortality).

[10] = tested on: Spodoptera littoralis (Egyptian Cotton Leaf Worm); assay: Example B13: Breakpoint (BP80) against Spodoptera littoralis; settings: lowest concentration which gives 80% larval mortality; larval feeding/contact
Procedure: as §1, §4

[11] = tested on: Plutella xylostella (Diamond black moth); assay: Example B13: Breakpoint (BP80) against Plutella xylostella; settings: lowest concentration which gives 80% larval mortality; larval feeding/contact
Procedure: as §2, §4

[12] = tested on: Diabrotica balteata (Corn Root Worm); assay: Example B14: Breakpoint (BP80) against Diabrotica balteata; settings: lowest concentration which gives 80% larval mortality; Table B14
Procedure: as §3
Insecticidal action against Diabrotica balteata (Corn root worm). The test were carried out as described in biological example B6 with the larval feeding contact activity being reported as Breakpoint (BP80) values in parts per million (i.e. the lowest concentration which gives 80% larval mortality).

Row | Structure (SMILES) | percent effect (mortality or growth inhibition) at 200 ppm [1] [%] | percent control (mortality, anti-feedant effect or growth inhibition) at 200 ppm [2] [%] | percent effect (mortality or growth inhibition) at 200 ppm [3] [%] | percent effect (mortality or growth inhibition) at 200 ppm [4] [%] | mortality at 200 ppm [5] [%] | percent effect (mortality, anti-feeding or growth inhibition) at 12.5 ppm [6] [%] | mortality at 200 ppm [7] [%] | mortality at 200 ppm [8] [%] | BP80 Values Diabrotica balteata [9] [ppm] | BP80 Values Spodoptera littoralis [10] [ppm] | BP80 Values Plutella xylostella [11] [ppm] | BP80 Values Diabrotica balteata [12] [ppm]
1 | CCS(=O)(=O)c1ccc(-c2cc(F)cc(F)c2)nc1-c1nc2cc(C(F)(F)F)ncc2n1C [Compound P8, 2-[6-(3,5-difluorophenyl)-3-ethylsulfonyl-2-pyridyl]-3-methyl-6-(trifluoromethyl)imidazo[4,5-c]pyridine] | ≥ 80 | ≥ 80 | ≥ 80 | ≥ 80 | – | – | – | – | – | – | – | –
2 | CCS(=O)(=O)c1ccc(C2CC2)nc1-c1nc2cc(C(F)(F)F)nnc2n1C [Compound P14, 6-(6-cyclopropyl-3-ethylsulfonyl-2-pyridyl)-7-methyl-3-(trifluoromethyl)imidazo[4,5-c]pyridazine] | ≥ 80 | ≥ 80 | ≥ 80 | ≥ 80 | ≥ 80 | ≥ 80 | ≥ 80 | – | – | – | – | –
3 | CCS(=O)(=O)c1ccc(C2CC2)nc1-c1nc2cc(SC(F)(F)F)ncc2n1C [Compound P13, 2-(6-cyclopropyl-3-ethylsulfonyl-2-pyridyl)-3-methyl-6-(trifluoromethylsulfanyl)imidazo[4,5-c]pyridine] | ≥ 80 | ≥ 80 | ≥ 80 | ≥ 80 | ≥ 80 | ≥ 80 | ≥ 80 | ≥ 80 | – | – | – | –
4 | CCS(=O)(=O)c1ccc(/C=C/c2ccccc2C(F)(F)F)nc1-c1nc2cc(C(F)(F)F)ncc2n1C [Compound P2, 2-[3-ethylsulfonyl-6-[(E)-2-[2-(trifluoromethyl)phenyl]vinyl]-2-pyridyl]-3-methyl-6-(trifluoromethyl)imidazo[4,5-c]pyridine] | – | ≥ 80 | ≥ 80 | ≥ 80 | – | – | – | – | – | – | – | –
5 | CCS(=O)(=O)c1ccc(-n2ccc(Cl)n2)nc1-c1nc2cc(SC(F)(F)F)ncc2n1C [Compound P11] | – | ≥ 80 | ≥ 80 | ≥ 80 | – | – | – | – | – | – | – | –
6 | CCS(=O)(=O)c1cccnc1-c1nc2cc(C(F)(F)F)ncc2n1C [Compound V12.03, reference compound] | – | – | – | – | – | – | – | – | 16 | 250 | 250 | –
7 | CCS(=O)(=O)c1cc(C(F)(F)F)c(-c2ccccc2Cl)nc1-c1nc2cc(C(F)(F)F)ncc2n1C [Compound P6] | – | ≥ 80 | ≥ 80 | ≥ 80 | – | – | – | – | – | – | – | –
8 | CCS(=O)(=O)c1ccc(C2CC2)nc1-c1nc2cc(Br)ncc2n1C [Compound P12, 6-bromo-2-(6-cyclopropyl-3-ethylsulfonyl-2-pyridyl)-3-methyl-imidazo[4,5-c]pyridine] | – | ≥ 80 | ≥ 80 | ≥ 80 | – | – | – | – | – | – | – | –
9 | CCS(=O)(=O)c1cc(C(F)(F)F)c(-c2ccc(C(F)(F)F)cc2)nc1-c1nc2cc(C(F)(F)F)ncc2n1C [Compound P4, 2-[3-ethylsulfonyl-5-(trifluoromethyl)-6-[4-(trifluoromethyl)phenyl]-2-pyridyl]-3-methyl-6-(trifluoromethyl)imidazo[4,5-c]pyridine] | – | ≥ 80 | ≥ 80 | ≥ 80 | – | – | – | – | – | – | – | 10
10 | CCS(=O)(=O)c1cc(C(F)(F)F)c(-c2cccc(C(F)(F)F)c2)nc1-c1nc2cc(C(F)(F)F)ncc2n1C [Compound P5] | – | ≥ 80 | – | ≥ 80 | – | – | – | – | – | – | – | 10
11 | CCS(=O)(=O)c1ccc(-n2ccc(C(F)(F)F)n2)nc1-c1nc2cc(SC(F)(F)F)ncc2n1C [Compound P9, 2-[3-ethylsulfonyl-6-[3-(trifluoromethyl)pyrazol-1-yl]-2-pyridyl]-3-methyl-6-(trifluoromethylsulfanyl)imidazo[4,5-c]pyridine] | ≥ 80 | ≥ 80 | ≥ 80 | ≥ 80 | – | – | ≥ 80 | – | – | – | – | –
12 | CCS(=O)(=O)c1cc(C(F)(F)F)cnc1-c1nc2cc(C(F)(F)F)ncc2n1C [Compound V12.01, reference compound] | – | – | – | – | – | – | – | – | – | – | – | 16
13 | CCS(=O)(=O)c1ccc(-c2ccc(Cl)cc2)nc1-c1nc2cc(C(F)(F)F)ncc2n1C [Compound P1, 2-[6-(4-chlorophenyl)-3-ethylsulfonyl-2-pyridyl]-3-methyl-6-(trifluoromethyl)imidazo[4,5-c]pyridine] | ≥ 80 | ≥ 80 | ≥ 80 | ≥ 80 | – | – | – | – | 3 | 12 | 12 | –
14 | CCS(=O)(=O)c1ccc(C2CC2)nc1-c1nc2cc(C(F)(F)F)ncc2n1C [Compound P15, 2-(6-cyclopropyl-3-ethylsulfonyl-2-pyridyl)-3-methyl-6-(trifluoromethyl)imidazo[4,5-c]pyridine] | ≥ 80 | ≥ 80 | ≥ 80 | ≥ 80 | ≥ 80 | ≥ 80 | – | – | – | – | – | –
